Measurements published in ChEMBL document CHEMBL2157907, “Optimization of anti-Trypanosoma cruzi oxadiazoles leads to identification of compounds with efficacy in infected mice” (Bioorg Med Chem, 2012).
Active and inactive are the calls of the source. No cut-off for these calls is given here.

How the values were obtained:
[1] = molecular target: Cruzipain (Trypanosoma cruzi) (UniProt P25779); test: Inhibition of Trypanosoma cruzi cruzain using Z-Phe-Arg-aminomethylcoumarin as substrate at 100 uM after 10 mins
[2] = Cytotoxicity against BALB/c mouse splenocytes after 24 hrs by [3H]-thymidine incorporation assay; assay type: cell-based, Splenocyte; conditions: read-out: LC50
Cruzipain = Cruzipain (Trypanosoma cruzi, UniProt P25779); test: Inhibition of Trypanosoma cruzi cruzain using Z-Phe-Arg-aminomethylcoumarin as substrate after 10 mins
Mus musculus [3] = test: Toxicity in BALB/c mouse assessed as serum globulin level at 25 mg/kg, po after 24 hrs; assay type: organism-based; design: dose 25 mg/kg, route oral; conditions: in vivo
Trypanosoma cruzi [4] = test: Induction of ultrastructural changes in trypomastigotes of Trypanosoma cruzi Y assessed as plasma membrane protrusions at 10 uM after 24 hrs by scanning electron microscopic analysis; assay type: functional
[5] = Therapeutic index, ratio of LC50 for BALB/c mouse splenocytes to IC50 for Trypanosoma cruzi Y; conditions: read-out: Ratio LC50/IC50
Mus musculus [6] = test: Toxicity in BALB/c mouse assessed as serum ALT level at 50 mg/kg, po after 24 hrs; assay type: organism-based; design: dose 50 mg/kg, route oral; conditions: in vivo
Mus musculus [7] = test: Toxicity in BALB/c mouse assessed as serum Ca2+ level at 100 mg/kg, po after 24 hrs; assay type: organism-based; design: dose 100 mg/kg, route oral; conditions: in vivo
Mus musculus [8] = test: Toxicity in BALB/c mouse assessed as serum cholesterol level at 25 mg/kg, po after 24 hrs; assay type: organism-based; design: dose 25 mg/kg, route oral; conditions: in vivo
Mus musculus [9] = test: Toxicity in BALB/c mouse assessed as serum alkaline phosphatase level at 100 mg/kg, po after 24 hrs; assay type: organism-based; design: dose 100 mg/kg, route oral; conditions: in vivo
Mus musculus [10] = test: Toxicity in BALB/c mouse assessed as serum GGT level at 25 mg/kg, po after 24 hrs; assay type: organism-based; design: dose 25 mg/kg, route oral; conditions: in vivo
Mus musculus [11] = test: Toxicity in BALB/c mouse assessed as serum AML level at 100 mg/kg, po after 24 hrs; assay type: organism-based; design: dose 100 mg/kg, route oral; conditions: in vivo
Trypanosoma cruzi [12] = test: Induction of kinetoplast enlargement in trypomastigotes of Trypanosoma cruzi Y at 3.5 uM after 24 hrs by […] electron microscopic analysis; assay type: functional, organism-based
Mus musculus [13] = test: Toxicity in BALB/c mouse assessed as serum total proteins level at 50 mg/kg, po after 24 hrs; assay type: organism-based; design: dose 50 mg/kg, route oral; conditions: in vivo
Mus musculus [14] = test: Toxicity in BALB/c mouse assessed as serum BUN level at 100 mg/kg, po after 24 hrs; assay type: organism-based; design: dose 100 mg/kg, route oral; conditions: in vivo
Mus musculus [15] = test: Toxicity in BALB/c mouse assessed as serum Ca2+ level at 50 mg/kg, po after 24 hrs; assay type: organism-based; design: dose 50 mg/kg, route oral; conditions: in vivo
Mus musculus [16] = test: Toxicity in BALB/c mouse assessed as serum uric acid level at 25 mg/kg, po after 24 hrs; assay type: organism-based; design: dose 25 mg/kg, route oral; conditions: in vivo
Trypanosoma cruzi [17] = test: Antitrypanosomal activity against trypomastigotes of Trypanosoma cruzi Y infected in rhesus monkey LLC-MK2 cells assessed parasite viability after 24 hrs; assay type: functional, organism-based; conditions: LLC-MK2, 24 h
Mus musculus [18] = test: Toxicity in BALB/c mouse assessed as serum ALB level at 100 mg/kg, po after 24 hrs; assay type: organism-based; design: dose 100 mg/kg, route oral; conditions: in vivo
Mus musculus [19] = test: Toxicity in BALB/c mouse assessed as serum uric acid level at 50 mg/kg, po after 24 hrs; assay type: organism-based; design: dose 50 mg/kg, route oral; conditions: in vivo
Trypanosoma cruzi [20] = test: Antitrypanosomal activity against epimastigotes of Trypanosoma cruzi Y after 5 days; assay type: functional, organism-based; conditions: 120 h
Mus musculus [21] = test: Toxicity in BALB/c mouse assessed as serum ALT level at 25 mg/kg, po after 24 hrs; assay type: organism-based; design: dose 25 mg/kg, route oral; conditions: in vivo
Trypanosoma cruzi [22] = test: Antitrypanosomal activity against trypomastigotes of Trypanosoma cruzi Y infected in BALB/c mouse assessed as reduction of parasite level in blood at 50 mg/kg, po administered after 5 days of postinfection qd for 5 days; assay type: functional, organism-based; design: dose 50 mg/kg
Mus musculus [23] = test: Toxicity in BALB/c mouse assessed as serum Ca2+ level at 25 mg/kg, po after 24 hrs; assay type: organism-based; design: dose 25 mg/kg, route oral; conditions: in vivo
Mus musculus [24] = test: Toxicity in BALB/c mouse assessed as serum cholesterol level at 100 mg/kg, po after 24 hrs; assay type: organism-based; design: dose 100 mg/kg, route oral; conditions: in vivo
Trypanosoma cruzi [25] = test: Antitrypanosomal activity against trypomastigotes of Trypanosoma cruzi Y in BALB/c mouse peritoneal exudate macrophages assessed as reduction of parasite infection to cells at 10 ug/ml treated simultaneously with parasite measured after 2 hrs; assay type: functional, organism-based
Mus musculus [26] = test: Toxicity in BALB/c mouse assessed as serum ALT level at 100 mg/kg, po after 24 hrs; assay type: organism-based; design: dose 100 mg/kg, route oral; conditions: in vivo
Mus musculus [27] = test: Toxicity in BALB/c mouse assessed as serum globulin level at 100 mg/kg, po after 24 hrs; assay type: organism-based; design: dose 100 mg/kg, route oral; conditions: in vivo
Mus musculus [28] = test: Toxicity in BALB/c mouse assessed as serum GGT level at 100 mg/kg, po after 24 hrs; assay type: organism-based; design: dose 100 mg/kg, route oral; conditions: in vivo
Mus musculus [29] = test: Toxicity in BALB/c mouse assessed as serum AML level at 50 mg/kg, po after 24 hrs; assay type: organism-based; design: dose 50 mg/kg, route oral; conditions: in vivo
Mus musculus [30] = test: Toxicity in BALB/c mouse assessed as mortality at 25 to 100 mg/kg, po; assay type: organism-based; design: dose 25-100 mg/kg, route oral; conditions: in vivo
Mus musculus [31] = test: Toxicity in BALB/c mouse assessed as serum AML level at 25 mg/kg, po after 24 hrs; assay type: organism-based; design: dose 25 mg/kg, route oral; conditions: in vivo
Trypanosoma cruzi [32] = test: Induction of endoplasmic reticulum degeneration in trypomastigotes of Trypanosoma cruzi Y at 3.5 uM after 24 hrs by […] electron microscopic analysis; assay type: functional, organism-based
Trypanosoma cruzi [33] = test: Antitrypanosomal activity against trypomastigotes of Trypanosoma cruzi Y infected in BALB/c mouse peritoneal exudate macrophages assessed as reduction of parasite level at 10 ug/ml after 4 days; assay type: functional, organism-based
Mus musculus [34] = test: Toxicity in BALB/c mouse assessed as serum BUN level at 25 mg/kg, po after 24 hrs; assay type: organism-based; design: dose 25 mg/kg, route oral; conditions: in vivo
Mus musculus [35] = test: Toxicity in BALB/c mouse assessed as serum cholesterol level at 50 mg/kg, po after 24 hrs; assay type: organism-based; design: dose 50 mg/kg, route oral; conditions: in vivo
Mus musculus [36] = test: Toxicity in BALB/c mouse assessed as serum alkaline phosphatase level at 25 mg/kg, po after 24 hrs; assay type: organism-based; design: dose 25 mg/kg, route oral; conditions: in vivo
Mus musculus [37] = test: Toxicity in BALB/c mouse assessed as serum GGT level at 50 mg/kg, po after 24 hrs; assay type: organism-based; design: dose 50 mg/kg, route oral; conditions: in vivo
Mus musculus [38] = test: Toxicity in BALB/c mouse assessed as serum ALB level at 50 mg/kg, po after 24 hrs; assay type: organism-based; design: dose 50 mg/kg, route oral; conditions: in vivo
Mus musculus [39] = test: Toxicity in BALB/c mouse assessed as serum ALB level at 25 mg/kg, po after 24 hrs; assay type: organism-based; design: dose 25 mg/kg, route oral; conditions: in vivo
Mus musculus [40] = test: Toxicity in BALB/c mouse assessed as serum uric acid level at 100 mg/kg, po after 24 hrs; assay type: organism-based; design: dose 100 mg/kg, route oral; conditions: in vivo
Mus musculus [41] = test: Toxicity in BALB/c mouse assessed as serum BUN level at 50 mg/kg, po after 24 hrs; assay type: organism-based; design: dose 50 mg/kg, route oral; conditions: in vivo
Mus musculus [42] = test: Toxicity in BALB/c mouse assessed as serum total proteins level at 25 mg/kg, po after 24 hrs; assay type: organism-based; design: dose 25 mg/kg, route oral; conditions: in vivo
Mus musculus [43] = test: Toxicity in BALB/c mouse assessed as serum alkaline phosphatase level at 50 mg/kg, po after 24 hrs; assay type: organism-based; design: dose 50 mg/kg, route oral; conditions: in vivo
Trypanosoma cruzi [44] = test: Induction of golgi apparatus degeneration in trypomastigotes of Trypanosoma cruzi Y at 3.5 uM after 24 hrs by […] electron microscopic analysis; assay type: functional, organism-based
Mus musculus [45] = test: Toxicity in BALB/c mouse assessed as serum globulin level at 50 mg/kg, po after 24 hrs; assay type: organism-based; design: dose 50 mg/kg, route oral; conditions: in vivo
Mus musculus [46] = test: Toxicity in BALB/c mouse assessed as serum total proteins level at 100 mg/kg, po after 24 hrs; assay type: organism-based; design: dose 100 mg/kg, route oral; conditions: in vivo
Trypanosoma cruzi [47] = test: Induction of mitochondria degeneration in trypomastigotes of Trypanosoma cruzi Y at 3.5 uM after 24 hrs by […] electron microscopic analysis; assay type: functional, organism-based
Trypanosoma cruzi [48] = test: Antitrypanosomal activity against trypomastigotes of Trypanosoma cruzi Y infected in BALB/c mouse assessed as reduction of parasite level in blood at 100 mg/kg, po administered after 5 days of postinfection qd for 5 days; assay type: functional, organism-based; design: dose 100 mg/kg

Cruzipain (Trypanosoma cruzi), sequence (P25779 123-467 limits assumed): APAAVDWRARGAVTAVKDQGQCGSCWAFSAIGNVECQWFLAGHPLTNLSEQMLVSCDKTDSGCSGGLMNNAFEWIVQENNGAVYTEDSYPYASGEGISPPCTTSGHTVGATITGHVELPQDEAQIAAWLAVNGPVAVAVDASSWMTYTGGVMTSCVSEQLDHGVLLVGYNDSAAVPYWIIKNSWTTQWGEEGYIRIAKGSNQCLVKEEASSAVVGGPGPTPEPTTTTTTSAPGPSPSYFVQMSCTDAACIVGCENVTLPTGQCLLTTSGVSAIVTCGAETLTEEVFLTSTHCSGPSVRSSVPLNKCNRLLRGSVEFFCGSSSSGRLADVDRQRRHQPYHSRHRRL
Cruzipain, sequence (P25779 whole entry): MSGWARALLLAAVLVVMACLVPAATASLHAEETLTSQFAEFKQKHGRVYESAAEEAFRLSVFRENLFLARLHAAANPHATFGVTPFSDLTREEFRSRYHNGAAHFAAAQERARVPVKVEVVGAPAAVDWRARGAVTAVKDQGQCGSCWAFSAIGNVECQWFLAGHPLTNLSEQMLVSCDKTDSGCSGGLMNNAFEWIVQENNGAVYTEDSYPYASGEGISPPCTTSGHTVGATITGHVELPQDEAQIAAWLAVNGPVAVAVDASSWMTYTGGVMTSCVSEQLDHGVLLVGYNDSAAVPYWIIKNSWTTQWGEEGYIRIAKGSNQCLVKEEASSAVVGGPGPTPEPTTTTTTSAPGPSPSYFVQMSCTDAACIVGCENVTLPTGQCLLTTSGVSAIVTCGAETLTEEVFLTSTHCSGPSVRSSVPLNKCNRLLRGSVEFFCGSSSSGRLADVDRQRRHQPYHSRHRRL

O=C(N/N=C/c1ccc2c(c1)OCO2)c1nc(-c2ccccc2)no1
inhibition [1]: 32% | CC50 at 24 h [2]: > 100 mg/L

COc1cc(/C=N/NC(=O)c2nc(-c3ccc(Cl)cc3)no2)ccc1O
inhibition [1]: 92% | IC50 (Cruzipain): 0.04 µM | CC50 at 24 h [2]: > 100 mg/L

COc1cc(/C=N/NC(=O)c2nc(-c3ccc(C)cc3)no2)ccc1O
inhibition [1]: 14% | CC50 at 24 h [2]: > 100 mg/L

COc1cc(/C=N/NC(=O)c2nc(-c3ccc(Br)cc3)no2)ccc1O
inhibition [1]: 100% | IC50 (Cruzipain): 0.2 µM | CC50 at 24 h [2]: > 100 mg/L

COc1ccc(-c2noc(C(=O)N/N=C/c3ccc4c(c3)OCO4)n2)cc1
inhibition [1]: 44% | CC50 at 24 h [2]: > 100 mg/L

CN(C)c1ccc(C(=C2C=CC(=[N+](C)C)C=C2)c2ccc(N(C)C)cc2)cc1 [GENTIAN VIOLET]
CC50 at 24 h [2]: 0.11 mg/L

O=C(N/N=C/c1ccc2c(c1)OCO2)c1nc(-c2ccc(Cl)cc2)no1
Activity (Mus musculus [3]): 2.4 g/dL | Activity (Trypanosoma cruzi [4]): 80% | selectivity ratio [5]: 50 | Activity (Mus musculus [6]): 36 U/L | Activity (Mus musculus [7]): 9.56 mg/dL | Activity (Mus musculus [8]): 53 mg/dL | Activity (Mus musculus [9]): 155.5 U/L | Activity (Mus musculus [10]): 1 U/L | Activity (Mus musculus [11]): 1170 U/L | Activity (Trypanosoma cruzi [12]): Active | Activity (Mus musculus [13]): 4.86 g/dL | Activity (Mus musculus [14]): 13.7 mg/dL | inhibition [1]: 42% | Activity (Mus musculus [15]): 9.45 mg/dL | Activity (Mus musculus [16]): 1.65 mg/dL | IC50 (Trypanosoma cruzi [17]): 3.5 µM | Activity (Mus musculus [18]): 2.36 g/dL | Activity (Mus musculus [19]): 1.46 mg/dL | IC50 (Trypanosoma cruzi [20]): 7.5 µM | Activity (Mus musculus [21]): 32.5 U/L | Activity (Trypanosoma cruzi [22]): Active | Activity (Mus musculus [23]): 9.45 mg/dL | Activity (Mus musculus [24]): 54.5 mg/dL | Activity (Trypanosoma cruzi [25]): Active | Activity (Mus musculus [26]): 29.67 U/L | Activity (Mus musculus [27]): 2.73 g/dL | Activity (Mus musculus [28]): 1 U/L | Activity (Mus musculus [29]): 1268 U/L | CC50 at 24 h [2]: > 100 mg/L | Activity (Mus musculus [30]): Non-toxic | Activity (Mus musculus [31]): 1183 U/L | Activity (Trypanosoma cruzi [32]): Active | Activity (Trypanosoma cruzi [33]): Active | Activity (Mus musculus [34]): 17.8 mg/dL | Activity (Mus musculus [35]): 59.5 mg/dL | Activity (Mus musculus [36]): 148 U/L | Activity (Mus musculus [37]): 0.67 U/L | Activity (Mus musculus [38]): 2.67 g/dL | Activity (Mus musculus [39]): 2.35 g/dL | Activity (Mus musculus [40]): 2 mg/dL | Activity (Mus musculus [41]): 18.07 mg/dL | Activity (Mus musculus [42]): 4.75 g/dL | Activity (Mus musculus [43]): 142.7 U/L | Activity (Trypanosoma cruzi [44]): Active | Activity (Mus musculus [45]): 2.16 g/dL | Activity (Mus musculus [46]): 5.1 g/dL | Activity (Trypanosoma cruzi [47]): Active

COc1cc(/C=N/NC(=O)c2nc(-c3ccc(F)cc3)no2)ccc1O
inhibition [1]: 63% | CC50 at 24 h [2]: > 100 mg/L

O=C(Cn1ccnc1[N+](=O)[O-])NCc1ccccc1 [BENZNIDAZOLE]
Activity (Trypanosoma cruzi [48]): Active | IC50 (Trypanosoma cruzi [17]): 11.3 µM | IC50 (Trypanosoma cruzi [20]): 7.5 µM
